Assay results from patent EP0886648B1 (ORTHO PHARMACEUTICAL CORPORATION, priority 1995, dated 1996).
Read-outs that look alike come from different tables or passages of the source. Blank lines part the entries; values can stand above or below the molecule they belong to. Positions of bridges follow the written chain, without caps; N, C: chain ends. Residues, ends and D or L forms follow the SMILES beside them. Chains are numbered I, II in the order given. No end group written: not given here.

Tests used:
[1] = biological target: T1, PIG-tailed EPO-R (Homo sapiens, UniProt P19235); assay: radioligand competition binding assay against PIG-tailed EPO-R immobilized on mAb179
T1 construct: comprised the extracellular domain of the EPO-receptor and was produced in recombinant host cells; thrombin cleavage site (internal); made in house
T1 sequence (P19235 25-250 limits assumed): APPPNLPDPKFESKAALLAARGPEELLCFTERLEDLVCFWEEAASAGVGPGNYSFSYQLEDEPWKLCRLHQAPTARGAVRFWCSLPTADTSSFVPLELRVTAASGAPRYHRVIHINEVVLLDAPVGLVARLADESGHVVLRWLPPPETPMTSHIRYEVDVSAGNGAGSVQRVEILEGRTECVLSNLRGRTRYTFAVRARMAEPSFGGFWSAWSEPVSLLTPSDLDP
Source text: The immobilized receptor used in the panning and ELISA procedures comprised the extracellular domain of the EPO-receptor and was produced in recombinant host cells. This receptor molecule can be produced in a variety of different forms and host cells. One useful form is constructed with a signal peptide for protein secretion and for glycophospholipid membrane anchor attachment (this form of anchor attachment is called "PIG-tailing;" see, Caras and Weddell, 3 March. 1989, Science 243:1196-1198; and Lin et al., 10 Aug. 1990, Science 249:677-679, each of which is incorporated herein by reference). This system allows for cleavage of the receptor from the surface of the cells expressing the receptor and collection of the cleaved receptor quite easily. Preferably, a protease cleavage site, such as a thrombin cleavage site, is inserted between the HPAP epitope of the PIG-tailed receptor and the receptor itself.
The recombinant receptor protein was immobilized using the following methodology. Microtiter plates were coated within an and-receptor antibody and the wells which were to contain the immobilized receptor were treated with bovine serum albumin (BSA) to block non-specific binding. The PIG-tailed receptor having a thrombin cleavage site was added to the coated wells of the microtiter plate, which were then washed to remove unbound receptor.
IC50s were calculated for several of the peptides falling within the general motifs described above. (Each of these peptides were independently synthesized and are C-terminally amidated, but could be easily prepared as the free carboxy acid or as an ester or other carboxy amide.)
This peptide was incubated with streptavidin in PBS at a 4:1 molar ratio at room temperature for one hour. Following this, the complex was introduced into the PIG-tailed EPO-R binding assay for IC50 determination. Peptide that had not been complexed to streptavidin was also run in the same experiment. […] Since this comparison was made using the free peptide concentrations and not the effective complex concentration (theoretically 4-fold lower), the effect will be even greater.
Figures 13 and 14 show the in vitro EPOR binding and biological activities of the dimer. The affinity of the dimer was tested against the PIG-tailed EPOR immobilized on mAb179 in strip wells.

[2] = test system: Female BDF1 mice; assay: polycythemic exhypoxic mouse bioassay; type: in vivo; details: approximate equivalency
Protocol: Female BDF1 mice (18-20 gms) are subjected to a conditioning cycle (in hypobaric chambers) of 18 hrs. at 0.40 ± 0.02 atm. and 6 hrs. at ambien pressure for a period of 14 days.
Mice are maintained at ambient pressure for 72 hrs prior to administration of r-HuEPO or test samples. Test samples or r-HuEPO standard are diluted for injection into conditioned mice. The vehicle consists of: PBS containing 0.1 % BSA (w/v). For each dilution, 0.5 ml is administered subcutaneously into each of 10 mice. ^59Fe is administered 48 hrs. later. Blood samples are taken 48 hrs. following administration of ^59Fe. Hematocrits and radioactivity measurements are determined for each sample. Dose range and results (two different assays) are set forth in Table 23 and Figures 17A-17C, infra.

[3] = test system: FDCP-1/hEPO-R; details: for increase in potency over the parental peptide: EC50 of dimer vs GGTYSCHFGPLTWVCKPQGG
Protocol: One assay utilized FDCP-1, a growth factor dependent murine multi-potential primitive hematopoietic progenitor cell line (see, e.g.. Dexter et al. (1980) J. Exp. Med. 152:1036-1047), as the parental cell line. This cell line can proliferate, but not differentiate, when supplemented with WEHI3-conditioned media (a medium that contains IL-3, ATCC number T1B68).
In brief, the cells are grown to half stationary density in the presence of the necessary growth factors. The cells are then washed in PBS and starved for 16-24 hours in whole media without the growth factors. After determining the viability of the cells, stock solutions (in whole media without the growth factors) are made to give about 10^5 cells per 50 microliters. […] Cells (50 microliters) are added to each well and the cells are incubated 24-48 hours, at which point the negative controls should die or be quiescent. Cell proliferation is then measured by techniques known in the art, such as an MTT assay which correlates with ^3H-thymidine incorporation as an indication of cell proliferation (see, Mosmann (1983) J. Immunol. Methods 65:55).
In addition, this peptide was preincubated with streptavidin in serum-free HEPES-buffered RPMI at a 4:1 molar ratio, as above. The complex was tested for stimulation of cell proliferation in an FDCP-1/hEPO-R bioassay alongside free […] (Ahx-biotin)) and the unbiotinylated parental peptide, i.e., […].

[4] = test system: FDC-P1/ER (murine receptor); assay: peptide dependent growth of EPO-responsive cell line FDC-P1/ER (thymidine incorporation); type: cell-based
Protocol: • a. […] Cell Proliferation Assay: • i. […] Peptide is added to each well in triplicate.

[5] = biological target: T2, extracellular domain of the human erythropoietin receptor (EPO binding protein, EBP) (Homo sapiens, UniProt P19235); assay: immobilized EBP based [125I]EPO competition binding assay
T2 construct: made in house
T2 sequence (P19235 25-250 limits assumed): T1 sequence (P19235 25-250 limits assumed)
Protocol: The mixture was rocked gently for 30 minutes at room temperature, and the beads were allowed to settle for 1 hour at room temperature. The supernatant was removed and retained, and the beads were washed twice with 20 ml of coupling buffer.
Competitive binding analysis assays of candidate peptides were performed as outlined below. Individual peptides were dissolved in DMSO to prepare a stock solution of 1 mM. […] Initial assay points with no added peptide were included in each assay to determine total binding. Binding mixtures were incubated overnight at room temperature with gentle rocking. The beads were then collected using Micro-columns (Isolab, Inc., Akron, Ohio) and washed with 3 mL of wash buffer.

[6] = free peptide, C-terminally amidated, read-out: IC50

IC50 [1, 6]: 352 nM
Molecule: CC[C@H](C)[C@@H]1NC(=O)[C@@H]2CCCN2C(=O)CNC(=O)[C@H](CCSC)NC(=O)[C@H](CCCNC(=N)N)NC(=O)[C@@H](NC(=O)[C@H](C)NC(=O)[C@H](Cc2ccc(O)cc2)NC(=O)[C@@H](NC(=O)CNC(=O)CN)C(C)C)CSSC[C@@H](C(=O)N[C@@H](CO)C(=O)N2CCC[C@H]2C(=O)N[C@@H](CC(C)C)C(=O)NCC(=O)NCC(N)=O)NC(=O)[C@H](C(C)C)NC(=O)[C@H](Cc2c[nH]c3ccccc23)NC(=O)[C@H]([C@@H](C)O)NC1=O (HELM PEPTIDE1{G.G.V.Y.A.C.R.M.G.P.I.T.W.V.C.S.P.L.G.G.[am]}$PEPTIDE1,PEPTIDE1,6:R3-15:R3$$$V2.0; N-terminus assumed)

IC50 [1, 6]: 420 nM
Molecule: CC[C@H](C)[C@@H]1NC(=O)[C@@H]2CCCN2C(=O)CNC(=O)[C@H](Cc2ccccc2)NC(=O)[C@H](Cc2c[nH]cn2)NC(=O)[C@@H](NC(=O)[C@H](CCSC)NC(=O)[C@H](Cc2ccc(O)cc2)NC(=O)[C@H](CC(N)=O)NC(=O)CNC(=O)[C@@H](N)C(C)C)CSSC[C@@H](C(=O)N[C@@H](CCCNC(=N)N)C(=O)N2CCC[C@H]2C(=O)NCC(=O)NCC(=O)NCC(N)=O)NC(=O)[C@H](C(C)C)NC(=O)[C@H](Cc2c[nH]c3ccccc23)NC(=O)[C@H]([C@@H](C)O)NC1=O (HELM PEPTIDE1{V.G.N.Y.M.C.H.F.G.P.I.T.W.V.C.R.P.G.G.G.[am]}$PEPTIDE1,PEPTIDE1,6:R3-15:R3$$$V2.0; N-terminus assumed)

Molecule: TIAQYICYMGPETWECRPSPKA [AF11654]
Amount of Peptide Equivalent to 0.025 units of EPO [2]: 11 to 21 nmol

IC50 ([1]; equilibrium competition binding assay, strip wells, read-out: affinity): 200 nM | IC50 [1, 6]: 237 nM | EC50 [3]: 400 nM | IC50 [5]: 5000 nM
Molecule: CC(C)C[C@@H]1NC(=O)[C@@H]2CCCN2C(=O)CNC(=O)[C@H](Cc2ccccc2)NC(=O)[C@H](Cc2c[nH]cn2)NC(=O)[C@@H](NC(=O)[C@H](CO)NC(=O)[C@H](Cc2ccc(O)cc2)NC(=O)[C@@H](NC(=O)CNC(=O)CN)[C@@H](C)O)CSSC[C@@H](C(=O)N[C@@H](CCCCN)C(=O)N2CCC[C@H]2C(=O)N[C@@H](CCC(N)=O)C(=O)NCC(=O)NCC(N)=O)NC(=O)[C@H](C(C)C)NC(=O)[C@H](Cc2c[nH]c3ccccc23)NC(=O)[C@H]([C@@H](C)O)NC1=O [RWJ 61233] (HELM PEPTIDE1{G.G.T.Y.S.C.H.F.G.P.L.T.W.V.C.K.P.Q.G.G.[am]}$PEPTIDE1,PEPTIDE1,6:R3-15:R3$$$V2.0)
EPO-ED50 [4]: 100 nM

IC50 [1, 6]: 1670 nM
Molecule: CC(C)C[C@H](NC(=O)CNC(=O)CN)C(=O)N[C@@H](Cc1ccc(O)cc1)C(=O)N[C@@H](CC(C)C)C(=O)N[C@H]1CSSC[C@@H](C(=O)NCC(=O)N[C@@H](Cc2ccc(O)cc2)C(=O)N[C@@H](CCCCN)C(=O)NCC(=O)NCC(N)=O)NC(=O)[C@H](CC(=O)O)NC(=O)[C@H](Cc2c[nH]c3ccccc23)NC(=O)[C@H]([C@@H](C)O)NC(=O)[C@H](C(C)C)NC(=O)[C@@H]2CCCN2C(=O)CNC(=O)[C@H](Cc2ccccc2)NC(=O)[C@H](CCCNC(=N)N)NC1=O (HELM PEPTIDE1{G.G.L.Y.L.C.R.F.G.P.V.T.W.D.C.G.Y.K.G.G.[am]}$PEPTIDE1,PEPTIDE1,6:R3-15:R3$$$V2.0; N-terminus assumed)

increase over the value for the parental peptide ([1]; affinity vs GGTYSCHFGPLTWVCKPQGG): 200 fold | increase over the streptavidin complex ([1]; affinity vs GGTYSCHFGPLTWVCKPQGGSSK (Ahx-biotin)-streptavidin complex): 5 fold
Molecule: I: GGTYSCHFGPLTWVCKPQGGK-NH2 / II: GGTYSCHFGPLTWVCKPQGG (disulfide I:6-I:15, II:6-II:15 (inferred); amide I:21-II:C (inferred); C-terminus assumed) [AF12080]
increase in potency over the parental peptide [3]: approximately 20 fold | increase in potency over the parental peptide ([3]; listed as dimeric peptide analog of GGTYSCHFGPLTWVCKPQGG): 20 fold | Amount of Peptide Equivalent to 0.025 units of EPO [2]: 0.035 nmol

IC50 [1, 6]: 179 nM
Molecule: CSCC[C@@H]1NC(=O)[C@H](CCCNC(=N)N)NC(=O)[C@@H](NC(=O)[C@H](Cc2c[nH]cn2)NC(=O)[C@H](Cc2ccc(O)cc2)NC(=O)[C@H](CC(=O)O)NC(=O)CNC(=O)CN)CSSC[C@@H](C(=O)N[C@@H](CCCCN)C(=O)N2CCC[C@H]2C(=O)N[C@@H](CC(C)C)C(=O)NCC(=O)NCC(N)=O)NC(=O)[C@H](C(C)C)NC(=O)[C@H](Cc2c[nH]c3ccccc23)NC(=O)[C@H]([C@@H](C)O)NC(=O)[C@H](CC(C)C)NC(=O)[C@@H]2CCCN2C(=O)CNC1=O (HELM PEPTIDE1{G.G.D.Y.H.C.R.M.G.P.L.T.W.V.C.K.P.L.G.G.[am]}$PEPTIDE1,PEPTIDE1,6:R3-15:R3$$$V2.0; N-terminus assumed)

IC50 [1, 6]: 67000 nM
Molecule: VGNYMAHMGPITWVCRPGG-NH2

Molecule: CC(C)C[C@@H]1NC(=O)[C@@H]2CCCN2C(=O)CNC(=O)[C@H](Cc2ccccc2)NC(=O)[C@H](Cc2c[nH]cn2)NC(=O)[C@@H](NC(=O)[C@H](CO)NC(=O)[C@H](Cc2ccc(O)cc2)NC(=O)[C@@H](NC(=O)CNC(=O)CN)[C@@H](C)O)CSSC[C@@H](C(=O)N[C@@H](CCCCN)C(=O)N2CCC[C@H]2C(=O)N[C@@H](CCC(N)=O)C(=O)NCC(=O)NCC(=O)N[C@@H](CO)C(=O)N[C@@H](CO)C(=O)N[C@@H](CCCCNC(=O)CCCCCNC(=O)CCCC[C@@H]2SC[C@@H]3NC(=O)N[C@@H]32)C(N)=O)NC(=O)[C@H](C(C)C)NC(=O)[C@H](Cc2c[nH]c3ccccc23)NC(=O)[C@H]([C@@H](C)O)NC1=O [AF11505] (HELM PEPTIDE1{G.G.T.Y.S.C.H.F.G.P.L.T.W.V.C.K.P.Q.G.G.S.S.K.[am]}|PEPTIDE2{[O=C1N[C@H]2[C@H](CS[C@H]2CCCCC(=O)[*:2])N1].[O=C(CCCCCN[*:1])[*:2]]}$PEPTIDE1,PEPTIDE2,23:R3-2:R2|PEPTIDE1,PEPTIDE1,6:R3-15:R3$$$V2.0; N-terminus and C-terminus assumed; bridges inferred)
EPO-ED50 ([3]; free peptides): approximately 1 µM
